US20260327217A1, “THIAZOLE DERIVATIVES AS TAU AGGREGATION INHIBITORS” (WisTa Laboratories Ltd., priority 2022, published 2026)
“Also recorded” adds a separate entry of the source. Structures can show the parent of a compound that is named as a salt. Where two headings read alike, the source gives them in different places.

Key:
[1] = toxicity in cells (lactate dehydrogenase assay, 24 hrs); type: cell-based; conditions: mouse, 3t6 fibroblasts; concentration at which 50% of cells are killed; 24 hrs exposure; read-out: LD50
Method: Toxicity of the compounds described herein was assessed using the fibroblast cells used in the cell-based assay described above to assess EC50. Toxicity was measured by cell numbers after 24 hrs exposure to the compound using a lactate dehydrogenase assay kit TOX-7 (Sigma Biosciences) according to the manufacturer's instructions after lysis of remaining cells. Alternatively, a kit from Promega UK (CytoTox 96) was used, again according to the manufacturer's instructions. LD50 is determined as the concentration of compound at which 50% of cells are killed.

[2] = target: T1, full-length tau (T40; htau40 isoform) / truncated tau (12-kDa fragment) in 3T6 fibroblast cells (Homo sapiens, UniProt P10636); experiment: cellular tau aggregation inhibition assay (truncated 12-kDa tau / full-length T40 band ratio on immunoblots); type: cell-based; conditions: for activity at 2 µM / activity at 20 µM: single concentration test, vs untreated cells, ~1.0 negative, <0.5 positive inhibitor, read-out: Truncated tau/T40 ratio (n = 3); for activity at 20 µM: tested at 20 μM
T1 construct: fibroblast cells (3T6) express full-length tau; PHF-core tau fragment (12-kDa fragment); expressed in transfected cells; host or cells: 3T6 fibroblast cells
Method: A cell-based tau aggregation assay was performed as described previously. The process is described in more detail in WO 02/055720. In essence, fibroblast cells (3T6) express full-length tau (“T40”; the htau40 isoform) under control of an inducible promotor, and low constitutive levels of the PHF-core tau fragment (12-kDa fragment). When T40 expression is induced, it undergoes aggregation-dependent truncation within the cell, N-terminally at approximately amino acid residue 295 and C-terminally at approximately residue 390, thereby producing higher levels of the 12-kDa PHF-core domain fragment. Production of the 12-kDa fragment can be blocked in a dose-dependent manner by tau-aggregation inhibitors. Indeed, the quantitation of inhibitory activity of compounds with respect to proteolytic generation of the 12-kDa fragment within cells can be described entirely in terms of the same parameters which describe inhibition of tau-tau binding in vitro. That is, the extent of proteolytic generation of the 12-kDa fragment within cells is determined entirely by the extent to tau-tau binding through the repeat domain.
[…] MTC was included as a reference tau aggregation inhibitor. For single concentration tests. The ratio of the quantity of both of the protein bands at different concentrations of TAI is measured, to correct for the level of expression of full-length tau and for cell density, particularly at high concentration of TAIs.
The inhibitory ratio (IR) is calculated by the equation:
Where IR^x=inhibitory ratio for compound at x mM; S=signal on immunoblot (mean) for truncated tau (trunc. tau) or full-length tau (full tau) bands for compound at 0 or x mM. A ratio of 1.0 indicates no effect, whereas values decreasing from 1.0 indicate increasing inhibitory action. A curve is generated for different concentrations and the EC50 value for the TAI is defined as the concentration at which the ratio of truncated tau: full-length tau is 50% of that ratio measured in the absence of TAI; this is determined graphically.
The concentration at which there is 50% inhibition of the 12-kDa band relative to T40 (referred to as the EC50 value) was calculated from a graph of the protein band ratios relative to those observed in untreated cells.

[3] = both AD and frontotemporal dementia; cited from earlier work
dGAE = target: T2, dGAE (Homo sapiens, UniProt P10636); experiment: solution-phase sandwich ELISA of dGAE assembly (scAb epitope occlusion); type: biochemical; conditions: 100 μM dGAE, 500 μM inhibitor, 24 h assembly; for assembly-dependent occlusion of epitopes: CA4, CE2, 1G2 and 1D12 epitopes; for 1G2 epitope availability / immunoreactivity: scAb 1G2
T2 construct: HMT or Compound 9 added
Method: Recombinant dGAE was produced in a bacterial expression system and assembled in the presence of 10 mM DTT by incubation at 37° C. with agitation for 24 h, as described previously. For testing the pharmacological activity, assembly reactions were performed with 100 μM dGAE and 500 μM tau aggregation inhibitor (Compound 9 or HMT) in Protein Lobind tubes (Eppendorf). Compound 9 was dissolved in DMSO (final 0.5%) and HMT in 10 mM phosphate buffer (PB) supplemented with 10 mM DTT. Control tubes with dGAE+DTT in PB and dGAE+DTT in 0.5% DMSO were also set up to allow for comparison of the extent of aggregation. Following a 24 h assembly reaction, the contents from each tube were mixed by pipetting and samples removed for the immunodetection of exposed epitopes using a solution-phase sandwich ELISA.
Ninety-six well Nunc Maxisorp plates were pre-coated with mAb 423 (10 μg/ml), which specifically recognises tau that is C-terminally truncated at Glu391 in the Pronase-resistant PHF core, washed three times with PBS containing 0.1% Tween 20 (PBST) and then blocked with 2% dried milk (Marvel) in PBS. Doubling dilutions of dGAE assembly samples were added from starting concentrations of 10 μg/ml in PBS and incubated for 1 h at 37° C. Bound tau was then detected using scAbs (10 μg/ml) and incubated for 1 h at 37° C. Anti-human C kappa HRP-conjugated secondary antibody was diluted 1:1,000 in 2% dried milk in PBS and incubated for 1 h at 37° C. Pierce 1-Step Ultra TMB-ELISA Substrate Solution was used to develop the reaction which was subsequently stopped with the addition of 1 M H2SO4. Absorbance was measured at 450 nm.

[4] = target: T1, full-length tau (T40; htau40 isoform) / truncated tau (12-kDa fragment) in 3T6 fibroblast cells; conditions: previously reported [4, 13]; read-out: EC50 in the cell assay; cited from earlier work
[5] = target: T3, truncated tau (residues 297-390; dGA) / dGAE (residues 297-391), tau-tau binding (Homo sapiens, UniProt P10636); experiment: in vitro cell-free tau-tau binding assay (B50); conditions: concentration required to inhibit tau-tau binding by 50%
T3 construct: truncated tau (residues 297-390; dGA); another truncated tau species (residues 297-391; dGAE)
Source text: This is described in detail in WO 96/30766 and in [25]. Briefly, a fragment of tau corresponding to the core repeat domain, which has been adsorbed to a solid-phase substrate, is able to capture soluble, full-length tau and bind tau with high affinity. This association confers stability against proteolytic digestion of the aggregated tau molecules. The process is self-propagating and can be blocked selectively by prototype pharmaceutical agents.
More specifically, truncated tau (residues 297-390; dGA) diluted in carbonate buffer (pH 9.6) was bound to the assay plate, and another truncated tau species (residues 297-391; dGAE) was added in the aqueous phase. The aqueous phase binding buffer contained 0.05% Tween-20 and 1% gelatine in phosphate-buffered saline (pH 7.4). Bound dGAE was detected using mAb 423 that recognises a Glu-391 dependent epitope that is absent from the solid-phase dGA.
The concentration of compound required to inhibit the tau-tau binding by 50% is referred to as the B50 value.

[6] = full assay, concentration at which truncated tau:full-length tau ratio is 50% of that without TAI, mean for replicates, NE = no effect, read-out: EC50

T3 sequence (P10636 614-708): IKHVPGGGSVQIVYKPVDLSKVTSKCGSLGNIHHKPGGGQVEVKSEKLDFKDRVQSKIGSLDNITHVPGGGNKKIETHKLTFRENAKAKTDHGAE
T2 sequence (P10636 614-708): as above
T1 sequence (P10636 1-441 isoform P10636-8): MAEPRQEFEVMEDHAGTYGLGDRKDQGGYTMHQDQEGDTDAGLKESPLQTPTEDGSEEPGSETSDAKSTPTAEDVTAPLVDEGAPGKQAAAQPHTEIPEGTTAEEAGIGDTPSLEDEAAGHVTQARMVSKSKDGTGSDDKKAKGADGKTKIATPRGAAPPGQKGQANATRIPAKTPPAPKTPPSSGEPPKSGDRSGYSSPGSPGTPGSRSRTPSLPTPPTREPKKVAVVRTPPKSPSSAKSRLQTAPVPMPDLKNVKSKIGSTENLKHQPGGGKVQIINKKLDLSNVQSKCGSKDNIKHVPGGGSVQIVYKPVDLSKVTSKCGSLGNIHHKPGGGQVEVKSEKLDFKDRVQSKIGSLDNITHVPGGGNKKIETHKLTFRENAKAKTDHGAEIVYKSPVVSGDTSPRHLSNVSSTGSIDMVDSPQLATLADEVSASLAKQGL

Structure (SMILES)	CC50 at 24 h [1]	activity at 2 µM ([2]; >2.0 aggregation enhanced)	also measured
CNS(=O)(=O)Nc1nc(C(=O)NCc2cc(-c3ccccc3)[nH]n2)cs1 [Compound 23]	226 ± 40 µM	98.5 ± 10.1%	–
CN(c1nc(C(=O)NCCC(C)(C)C)cs1)S(C)(=O)=O [Compound 10]	191 ± 26 µM	49.6 ± 9.6%	EC50 [2, 6]: 29 µM
CS(=O)(=O)Nc1nc(C(=O)NCc2cc3ccccc3[nH]2)cs1 [Compound 3]	212 ± 14 µM	228 ± 44.9%	–
Cn1cccc1CNC(=O)c1csc(NS(C)(=O)=O)n1 [Compound 2]	253 ± 40 µM	86.4 ± 5.9%	–
CN(C)c1ccc2nc3ccc(N(C)C)cc3[s+]c2c1.[Cl-] [MT, reference compound]	–	–	tau aggregation level, % of that measured in its absence ([2]; MT at 1 μM): 9.6%
CS(=O)(=O)Nc1nc(C(=O)NCc2ccc[nH]2)cs1 [Compound 1]	247 ± 16 µM	501 ± 40.4%	–
CC(C)(C)CCNC(=O)c1csc(NS(=O)(=O)CCO)n1 [Compound 14]	263 ± 39 µM	–	EC50 [2, 6]: 3.7 µM; activity at 2 µM ([2]; tested at 2 μM): 38.1 ± 14.6%
CNS(=O)(=O)Nc1nc(C(=O)NCc2cc3ccccc3[nH]2)cs1 [Compound 21]	227 ± 30 µM	217 ± 85.6%	–
CC(C)(C)CCNC(=O)c1csc(NS(=O)(=O)CF)n1 [Compound 20]	186 ± 13 µM	80.3 ± 42.4%	–
CNS(=O)(=O)Nc1nc(C(=O)NCCC(C)(C)C)cs1 [Compound 24]	235 ± 44 µM	349 ± 106%	–
CN(c1nc(C(=O)NCc2ccc[nH]2)cs1)S(C)(=O)=O [Compound 7]	216 ± 46 µM	44.4 ± 20.8%	–
CS(=O)(=O)Nc1nc(C(=O)NCc2cc(-c3ccccc3)[nH]n2)cs1 [Compound 5]	252 ± 23 µM	72.7 ± 11.3%	–
CN(c1nc(C(=O)NCc2cccn2C)cs1)S(C)(=O)=O [Compound 8]	204 ± 39 µM	7.8 ± 1.4%	–
O=C(NCc1cc(-c2ccccc2)[nH]n1)c1csc(NS(=O)(=O)CCO)n1 [Compound 13]	197 ± 8.1 µM	–	activity at 20 µM [2]: 112 ± 16.2%
CN(C)c1ccc2c(c1)Sc1cc(N(C)C)ccc1N2 [HMTM, Hydromethylthionine mesylate]	–	–	pharmacological activity on clinical decline and brain atrophy [3]: exposure-dependent pharmacological activity on clinical decline and brain atrophy
CN(C)c1ccc2c(c1)Sc1cc(N(C)C)ccc1N2 [HMT, Hydromethylthionine, reference compound]	–	–	assembly-dependent occlusion of epitopes (dGAE): assembly-dependent occlusion of these epitopes did not occur; 1G2 epitope availability / immunoreactivity (dGAE): remained partially occluded; CE2 epitope availability / immunoreactivity (dGAE; scAb CE2): became more available in the HMT-treated sample than in the soluble pre-assembly sample; also recorded: prevented the conformational changes in the CE2 epitope responsible for early loss of immunoreactivity; EC50 [4]: 0.6 µM
CS(=O)(=O)Nc1nc(C(=O)NCc2nc3cc(Cl)ccc3[nH]2)cs1 [Compound 4]	264 ± 27 µM	480 ± 114%	–
O=C(NCc1cc2ccccc2[nH]1)c1csc(NS(=O)(=O)CF)n1 [Compound 17]	228 ± 40 µM	–	activity at 2 µM ([2]; tested at 2 μM): 53.2 ± 15%
O=C(NCc1nc2cc(Cl)ccc2[nH]1)c1csc(NS(=O)(=O)c2c[nH]c3ccccc23)n1 [Compound 25]	202 ± 9.3 µM	–	activity at 20 µM [2]: 91.1 ± 10%; IC50 [5]: 612 µM
O=C(NCc1cc(-c2ccccc2)[nH]n1)c1csc(NS(=O)(=O)c2c[nH]c3ccccc23)n1 [Compound 26]	188 ± 11 µM	–	activity at 20 µM [2]: 132 ± 8.4%; IC50 [5]: 616 µM
Cn1cccc1CNC(=O)c1csc(NS(=O)(=O)CF)n1 [Compound 16]	236 ± 25 µM	–	activity at 20 µM [2]: 62.8 ± 5.1%
Cn1cccc1CNC(=O)c1csc(NS(=O)(=O)CCO)n1 [Compound 11]	222 ± 35 µM	91.7 ± 18.8%	–
O=C(NCc1nc2ccc(Cl)cc2[nH]1)c1csc(NS(=O)(=O)CF)n1 [Compound 18]	225 ± 38 µM	14.1 ± 3.9%	–
CNS(=O)(=O)Nc1nc(C(=O)NCc2nc3cc(Cl)ccc3[nH]2)cs1 [Compound 22]	228 ± 36 µM	136 ± 59.1%	–
O=C(NCc1nc2cc(Cl)ccc2[nH]1)c1csc(NS(=O)(=O)CCO)n1 [Compound 12]	197 ± 11.9 µM	–	activity at 20 µM [2]: 101 ± 8.8%
O=C(NCc1ccc[nH]1)c1csc(NS(=O)(=O)CF)n1 [Compound 15]	221 ± 35 µM	120 ± 25.7%	–
CC(C)(C)CCNC(=O)c1csc(NS(C)(=O)=O)n1 [Compound 6]	217 ± 2.7 µM	88.8 ± 5.7%	–
O=C(NCc1cc(-c2ccccc2)[nH]n1)c1csc(NS(=O)(=O)CF)n1 [Compound 19]	231 ± 38 µM	197 ± 94.6%	–
CN(c1nc(C(=O)NCc2cc(-c3ccccc3)[nH]n2)cs1)S(C)(=O)=O [Compound 9]	80.1 ± 45 µM	–	assembly-dependent occlusion of epitopes (dGAE): Epitope exposure was less complete; 1G2 epitope availability / immunoreactivity (dGAE): comparable to HMT; exposure of the CA4 and 1D12 epitopes (dGAE; scAbs CA4 and 1D12): only partial exposure; EC50 [2, 6]: 4.82 µM; activity in cell-based aggregation assay (in words) ([2]; qualitative statement): lower potency; activity at 2 µM ([2]; tested at 2 μM): 26.6 ± 6.1%; EC50 ([2]; single experiment, FIG. 2, read-out: EC50 (50% inhibition of the lower 12-kDa band)): 3.65 µM; IC50 [5]: > 500 µM
